Results on two compounds are retold here after US9295706B2, “Phytotherapic pharmaceutical combination of Lippia salviifolia and Lippia sidoides, phytotherapic pharmaceutical composition, process for preparing a phytotherapic pharmaceutical composition and veterinary uses thereof” (priority 2010, dated 2016).

Holding throughout (type): cell-based
In one assay the test system is Candida albicans. Description: Minimum Inhibitory Concentration (MIC) against Candida albicans. To be noted: Candida albicans strain.
The subject of a further assay is Pseudomonas aeruginosa. Description: Minimum Inhibitory Concentration (MIC) against Pseudomonas aeruginosa. To be noted: Pseudomonas aeruginosa strain.
Another assay concerns Staphylococcus aureus. Description: Minimum Inhibitory Concentration (MIC) against Staphylococcus aureus. To be noted: Staphylococcus aureus strain.
A further assay relates to Escherichia coli. Description: Minimum Inhibitory Concentration (MIC) against Escherichia coli. The conditions noted are these: Escherichia coli strain.
Assay [1] concerns Staphylococcus epidermidis. Description: Minimum Inhibitory Concentration (MIC) against Staphylococcus epidermidis. To be noted: Staphylococcus epidermidis strain.

As to `C[C@@H]1[C@H](O)[C@@H](C)/C=C/C=C/C=C/C=C/C=C/C=C/C=C/[C@H](O[C@@H]2O[C@H](C)[C@@H](O)[C@H](N)[C@@H]2O)C[C@@H]2O[C@](O)(C[C@@H](O)C[C@@H](O)[C@H](O)CC[C@@H](O)C[C@@H](O)CC(=O)O[C@H]1C)C[C@H](O)[C@H]2C(=O)O` [Amphotericin B], the “MIC Values” in the assay on Candida albicans is 3.15 (b) μg/ml.

As to Gemtamicin, the “MIC Values” in the assay with Pseudomonas aeruginosa was 37 (a) μg/ml; against Staphylococcus aureus it was 75 (a) μg/ml; in the assay on Escherichia coli, 75 (a) μg/ml; in assay [1], 150 (a) μg/ml.
